Laboratory results from PubChem BioAssay AID1963976 (Molecular Pharmacology Branch, DTP, NCI, 2024).
Several values for one entry are separate records, joined by “and”; a condition that tells them apart may be missing. Equal values may be shown once.

Test system: 435261-313-R-J1-PDC tumor spheroid viability
Experiment: Anticancer human tumor 435261-313-R-J1-PDC patient-derived colon adenocarcinoma cell line growth inhibition [PI3K]
Conditions: spheroids with HUVEC and MSC; for viability, T/C: stronger effect = lower value
How it was run: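 Stroma-containing spheroids: tumor line, pooled-donor HUVEC, hMSC. Treatments: targeted agents with PI3K inhibitors. Dosing: clinically relevant, half-log spacing, 10 microM ceiling without known Cmax. Read-out: cell viability.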

[1] = curve of first compound, second compound 0.00316 µM
[2] = curve of first compound, second compound 0.01 µM
[3] = curve of first compound, second compound 0.0316 µM
[4] = curve of first compound, second compound 0.1 µM
[5] = curve of first compound, second compound 0.316 µM
[6] = curve of first compound, second compound 1 µM
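Note: spheroids exposed to compounds for 7 days.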

## Cn1cnc2c(F)c(Nc3ccc(Br)cc3Cl)c(C(=O)NOCCO)cc21 + CC(Nc1ccc2c(c1)OCCn1cc(N3C(=O)OCC3C(F)F)nc1-2)C(N)=O
[1]
  IC50: < 9.49 nM
[2]
  IC50: < 9.49 nM
[3]
  IC50: < 9.49 nM
[4]
  IC50: < 9.49 nM
[5]
  IC50: < 9.49 nM
[6]
  IC50: < 9.49 nM
Second compound 0.00316 µM, first compound 0.00949 µM
  viability, T/C: 28.1%
Second compound 0.00316 µM, first compound 0.03 µM
  viability, T/C: 22.7%
Second compound 0.00316 µM, first compound 0.0949 µM
  viability, T/C: 14.8%
Second compound 0.00316 µM, first compound 0.3 µM
  viability, T/C: 15.4%
Second compound 0.00316 µM, first compound 0.949 µM
  viability, T/C: 16.1%
Second compound 0.00316 µM, first compound 3 µM
  viability, T/C: 11%
Second compound 0.01 µM, first compound 0.00949 µM
  viability, T/C: 25.1%
Second compound 0.01 µM, first compound 0.03 µM
  viability, T/C: 24.3%
Second compound 0.01 µM, first compound 0.0949 µM
  viability, T/C: 16.8%
Second compound 0.01 µM, first compound 0.3 µM
  viability, T/C: 16.2%
Second compound 0.01 µM, first compound 0.949 µM
  viability, T/C: 16.1%
Second compound 0.01 µM, first compound 3 µM
  viability, T/C: 11.5%
Second compound 0.0316 µM, first compound 0.00949 µM
  viability, T/C: 25.9%
Second compound 0.0316 µM, first compound 0.03 µM
  viability, T/C: 23.4%
Second compound 0.0316 µM, first compound 0.0949 µM
  viability, T/C: 15.4%
Second compound 0.0316 µM, first compound 0.3 µM
  viability, T/C: 14.8%
Second compound 0.0316 µM, first compound 0.949 µM
  viability, T/C: 12.2%
Second compound 0.0316 µM, first compound 3 µM
  viability, T/C: 6.61%
Second compound 0.1 µM, first compound 0.00949 µM
  viability, T/C: 21.4%
Second compound 0.1 µM, first compound 0.03 µM
  viability, T/C: 12.5%
Second compound 0.1 µM, first compound 0.0949 µM
  viability, T/C: 13.1%
Second compound 0.1 µM, first compound 0.3 µM
  viability, T/C: 11.7%
Second compound 0.1 µM, first compound 0.949 µM
  viability, T/C: 10.7%
Second compound 0.1 µM, first compound 3 µM
  viability, T/C: 6.55%
Second compound 0.316 µM, first compound 0.00949 µM
  viability, T/C: 12%
Second compound 0.316 µM, first compound 0.03 µM
  viability, T/C: 12.2%
Second compound 0.316 µM, first compound 0.0949 µM
  viability, T/C: 4.89%
Second compound 0.316 µM, first compound 0.3 µM
  viability, T/C: 8.13%
Second compound 0.316 µM, first compound 0.949 µM
  viability, T/C: 7.5%
Second compound 0.316 µM, first compound 3 µM
  viability, T/C: 2.69%
Second compound 1 µM, first compound 0.00949 µM
  viability, T/C: 11.9%
Second compound 1 µM, first compound 0.03 µM
  viability, T/C: 9.34%
Second compound 1 µM, first compound 0.0949 µM
  viability, T/C: 5.53%
Second compound 1 µM, first compound 0.3 µM
  viability, T/C: 6.3%
Second compound 1 µM, first compound 0.949 µM
  viability, T/C: 4.59%
Second compound 1 µM, first compound 3 µM
  viability, T/C: 0.73%

## CC(Cn1ccc(-c2ccc(C#N)c(Cl)c2)n1)NC(=O)c1cc(C(C)O)[nH]n1 (stereo unspecified)
Compound 0.0316 µM
  viability, T/C: 97.2% and 88.6% and 70.7%
Compound 0.1 µM
  viability, T/C: 108% and 96.9% and 109%
Compound 0.316 µM
  viability, T/C: 130% and 117% and 107%
Compound 1 µM
  viability, T/C: 79.9% and 113% and 70.2%
Compound 3.16 µM
  viability, T/C: 110% and 105% and 108%
Compound 10 µM
  viability, T/C: 120% and 102% and 99.3%
Curve of compound
  IC50: > 10000 nM

## C[C@@H](NC(=O)c1ncnc(N)c1Cl)c1ncc(C(=O)Nc2cc(C(F)(F)F)c(Cl)cn2)s1 + COc1c(OCCCN2CCOCC2)ccc2c3n(c(=NC(=O)c4cnc(N)nc4)nc12)CCN3
[1]
  IC50: > 10000 nM
[2]
  IC50: > 10000 nM
[3]
  IC50: < 31.6 nM
[4]
  IC50: < 31.6 nM
[5]
  IC50: < 31.6 nM
[6]
  IC50: < 31.6 nM
Second compound 0.00316 µM, first compound 0.0316 µM
  viability, T/C: 133%
Second compound 0.00316 µM, first compound 0.1 µM
  viability, T/C: 138%
Second compound 0.00316 µM, first compound 0.316 µM
  viability, T/C: 70%
Second compound 0.00316 µM, first compound 1 µM
  viability, T/C: 120%
Second compound 0.00316 µM, first compound 3.16 µM
  viability, T/C: 99.2%
Second compound 0.00316 µM, first compound 10 µM
  viability, T/C: 78.6%
Second compound 0.01 µM, first compound 0.0316 µM
  viability, T/C: 66.2%
Second compound 0.01 µM, first compound 0.1 µM
  viability, T/C: 70.4%
Second compound 0.01 µM, first compound 0.316 µM
  viability, T/C: 69.8%
Second compound 0.01 µM, first compound 1 µM
  viability, T/C: 103%
Second compound 0.01 µM, first compound 3.16 µM
  viability, T/C: 63.3%
Second compound 0.01 µM, first compound 10 µM
  viability, T/C: 53.2%
Second compound 0.0316 µM, first compound 0.0316 µM
  viability, T/C: 32.7%
Second compound 0.0316 µM, first compound 0.1 µM
  viability, T/C: 33.6%
Second compound 0.0316 µM, first compound 0.316 µM
  viability, T/C: 47.5%
Second compound 0.0316 µM, first compound 1 µM
  viability, T/C: 30.1%
Second compound 0.0316 µM, first compound 3.16 µM
  viability, T/C: 37.8%
Second compound 0.0316 µM, first compound 10 µM
  viability, T/C: 17.5%
Second compound 0.1 µM, first compound 0.0316 µM
  viability, T/C: 20.4%
Second compound 0.1 µM, first compound 0.1 µM
  viability, T/C: 21.7%
Second compound 0.1 µM, first compound 0.316 µM
  viability, T/C: 22%
Second compound 0.1 µM, first compound 1 µM
  viability, T/C: 19.5%
Second compound 0.1 µM, first compound 3.16 µM
  viability, T/C: 18.2%
Second compound 0.1 µM, first compound 10 µM
  viability, T/C: 8.2%
Second compound 0.316 µM, first compound 0.0316 µM
  viability, T/C: 10.8%
Second compound 0.316 µM, first compound 0.1 µM
  viability, T/C: 13.1%
Second compound 0.316 µM, first compound 0.316 µM
  viability, T/C: 12.2%
Second compound 0.316 µM, first compound 1 µM
  viability, T/C: 13.3%
Second compound 0.316 µM, first compound 3.16 µM
  viability, T/C: 10.5%
Second compound 0.316 µM, first compound 10 µM
  viability, T/C: 3.91%
Second compound 1 µM, first compound 0.0316 µM
  viability, T/C: 5.11%
Second compound 1 µM, first compound 0.1 µM
  viability, T/C: 6.44%
Second compound 1 µM, first compound 0.316 µM
  viability, T/C: 7.13%
Second compound 1 µM, first compound 1 µM
  viability, T/C: 7.09%
Second compound 1 µM, first compound 3.16 µM
  viability, T/C: 5.4%
Second compound 1 µM, first compound 10 µM
  viability, T/C: 2.3%
